Experiments:
CKD mouse model = test: Chronic kidney disease (CKD) mouse model, 5/6 (subtotal) nephrectomy; assay type: in vivo; set-up: Plasma creatinine level: unit not given here; conditions: CKD mice
Method: Animals were housed in a climate-controlled facility with a 12-h/12-h light/dark cycle and provided free access to food and water. Experiments were approved by the Darwin ethics committee of Sorbonne University, and conducted according to the INSERM animal care and use committee guidelines. The NGAL inhibitor GP1 was incorporated in regular chow (A04, Safe, Augy, France) at the dose of 625 mg GP1/kg of chow to achieve a low dose of 100 mg/kg/day of GP1 administered to the mice (based on a daily consumption of 4 g of chow).
LV hemodynamic was assessed as described previously. Briefly, mice were anesthetized (chloral 320 mg/kg, IP) and the carotid artery cannulated with a pressure–volume catheter (SPR839, Millar-Instruments, USA) and the catheter was advanced into the LV. Pressure–volume loops were obtained at baseline and during loading by gently occluding the abdominal aorta. LV end-systolic and end-diastolic pressures, dP/dtmax/min, LV relaxation constant tau and were measured/calculated with IOX software (EMKA, France). Systolic BP was measured by tail-cuff plethysmography in trained conscious mice at weeks 8–10 using a BP2000 Visitech model. BP was measured every day in the same room at the same hour for 5 consecutive days. The BP measurements (expressed as mmHg) presented are the averages of the last 3 days.
Chronic kidney disease (CKD) was induced by subtotal nephrectomy in 8-weeks-old male mice (25–26 g). All surgeries were performed under ketamine/xylazine anaesthesia. Briefly, the left kidney was exposed, and the upper and lower poles were tied with a poly-glycolic acid suture line. The peritoneum and skin were then sutured, and the animals were returned to their individual cages. After 1 week of recovery, the second kidney was removed. Removal of the second kidney represents T0. Sham mice were subjected to the same surgical procedures but neither renal poles nor the right kidney were removed. Mice were monitored for any sign of distress, and those observed to be experiencing severe, unrelievable pain were euthanized. Renal failure was assessed by the measure of plasma creatinine and urea with an automatic analyser (Konelab 20i; Thermo Fisher Scientific, Vernon Hills, IL) at weeks 4 and 8 post-Nx.
In the MI model, heart was harvested after hemodynamics and the atria and the ventricles were separated and weighed individually. A section of the left ventricle was immersed in Bouin fixative solution. In the CKD model, kidneys were harvested and a section was immersed in paraformaldehyde fixative solution. After fixation, the sections were dehydrated and embedded in paraffin. From these sections, 5-μm thick histologic slices were obtained and were stained with Sirius Red. For the measurement of cardiac or renal collagen density, slides were examined and photographed under a light microscope (Zeiss) at 40× magnification. Collagen content was calculated as percentage of collagen area to total area of the image. Perivascular collagen was excluded from the analysis. For tubular lesions scoring, kidney slides were stained with Periodic Acid-Schiff kit (Sigma) and the score of tubules with injury (epithelial cell necrosis and detachment, and tubular dilation) was analyzed blinded to the experimental groups.
Frozen tissues (kidneys, heart) were homogenized in TRIzol (Life Technologies, Illinois, USA) using FastPrep beads (MP-Bio, CA, USA). cDNAs were generated using the Superscript II reverse transcriptase kit (Invitrogen,NY, USA), and qPCR was performed as previously described. Briefly, transcript levels were analysed in a CFX396 apparatus (Biorad). The reactions were performed in duplicate for each sample using the IQ SYBR Green supermix Kit (Biorad,CA, USA). To normalize gene expression, the geometric mean of multiple internal reference genes were used (RS16, Ubc, Hprt and Gapdh for mice experiments). Values in control conditions were set as 1 for each gene. The sequences of the specific primers are detailed in Table S8.

hNGAL = target: T1, hNGAL (Homo sapiens, UniProt P80188); test: hNGAL-induced intracellular profibrotic protein levels in human cardiac fibroblasts (Western blot); assay type: cell-based; set-up: % inhibition versus hNGAL on Col I protein level / % inhibition versus hNGAL on Col III protein level / % inhibition versus hNGAL on Fibronectin protein level / % inhibition versus hNGAL on Galectin 3 protein level: concentration or dose not given beside the values
T1 construct: purchased R&D Systems
T1 sequence (P80188 21-198): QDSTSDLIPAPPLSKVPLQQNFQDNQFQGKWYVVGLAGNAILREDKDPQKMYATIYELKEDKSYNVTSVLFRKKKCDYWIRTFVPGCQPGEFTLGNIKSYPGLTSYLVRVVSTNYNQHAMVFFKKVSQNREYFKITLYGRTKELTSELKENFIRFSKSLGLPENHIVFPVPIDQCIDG
Method: Primary human cardiac fibroblasts (HCF) were obtained from Promocell (Heidelberg, Germany) and maintained in Fibroblast Media 3 following manufacturer’s instructions (Promocell). Cells were used between passages 5 and 7. Cells were stimulated with recombinant hNGAL (500 ng/mL, R&D Systems) or with TGFβ (10 ng/mL, R&D Systems) for 24 h. To assess cell proliferation the MTT test was used following provider’s instructions (Roche). For protein analysis. Primary Mouse Kidney Fibroblasts (MKF) were isolated from Wild Type (WT) mice. Briefly, 8 weeks old mice were sacrificed by cervical dislocation and kidneys were cleaned and rinsed in cold DPBS (Dulbecco's Phosphate-Buffered Saline). The renal cortex was minced and incubated in Dulbecco’s modified eagle medium/Nutrient mixture F-12 (DMEM/F12, Sigma) containing 1 mg/mL collagenase A (Roche) during 25 min at 37 °C. The digestion was inactivated by adding culture medium (DMEM/F12 + 10% FBS) then the cell suspension was passed through a 100-μm cell strainer. After centrifugation, the pellet (containing MKF) was diluted with culture medium then plated in 75 cm^2 culture flask. After 24 h MKF were washed with DPBS before replacement of fresh culture medium. Thereafter, culture medium was changed every 48 h. Once 70–80% confluent, MKF were trypsinized and plated in 12 or 6-well plates. For experimental use, MKF were starved with culture medium containing only 3% FBS. MKF were treated with mNGAL (500 ng/mL, R&D Systems) or with TGFβ (10 ng/mL, R&D Systems) for 6 h for gene expression analysis.
Total protein aliquots of 20 μg were prepared from cardiac homogenates and HCF and electrophoresed on SDS polyacrylamide gels and transferred to Hybond-c Extra nitrocellulose membranes (Amersham Biosciences). Membranes were incubated with primary antibodies for: Collagen I (Santa Cruz; dilution 1:500), Collagen type III (Santa Cruz; dilution 1:500), fibronectin (Millipore, 1:500), Galectin-3 (Thermo, 1:1000), α-SMA (Sigma, 1:1000), CTGF (Santa Cruz, 1:200), CD68 (Abcam, 1:500), CD80 (Santa Cruz, 1:500), CD86 (Santa Cruz, 1:500). […] After densitometric analyses, optical density values were expressed as arbitrary units. Results are expressed as an n-fold increase over the values of the control group in densitometric arbitrary units.

[1] = Table S2, human cardiac fibroblasts

CC(=O)c1cccc(S(=O)(=O)NCc2ccccc2-n2cccn2)c1 [GPZ614741]
KW/TL (kidney weight/tibia length) (CKD mouse model; GP1 100 mg/kg/day, two months, CKD untreated 11.5 ± 0.42): 11.3 ± 0.23 mg/mm
Plasma urea level (CKD mouse model; GP1 100 mg/kg/day, two months, CKD untreated 15.2 ± 0.36): 16.74 ± 1.86 mM
Plasma creatinine level (CKD mouse model; GP1 100 mg/kg/day, two months, CKD untreated 21.5 ± 1.45): 20.4 ± 1.54
SBP (systolic blood pressure) (CKD mouse model; GP1 100 mg/kg/day, two months, CKD untreated 139.3 ± 2.22): 122.1 ± 2.58 mmHg
Increased expression of profibrotic markers (Col I, fibronectin, αSMA) (CKD mouse model; kidney mRNA, Fig. 4C): blunted
Functional parameters: plasma levels of urea or creatinine, in words (CKD mouse model; one and two months after CKD induction): no impact
Increase in blood pressure, in words (CKD mouse model; two months of GP1): prevented the increase
Renal tubulointerstitial fibrosis (Sirius red) (CKD mouse model; two months of GP1, Fig. 4A): strong antifibrotic effect
Tubular injury (tubular lesion scoring, PAS) (CKD mouse model; × 3.1 in CKD vs. Sham, Fig. 4B): prevented
hNGAL-induced expression of intracellular profibrotic proteins (Col I, Col III, fibronectin, Gal3), in words (hNGAL; 10 µM, human cardiac fibroblasts, Fig. 1D): blocked
Col III synthesis (protein level) (hNGAL; Table S2, hNGAL-treated human cardiac fibroblasts, Control 1.0, NGAL 1.67, mean ± SEM): 1.05 ± 0.1
Fibronectin synthesis (protein level) (hNGAL; Table S2, hNGAL-treated human cardiac fibroblasts, Control 1.0, NGAL 1.8, mean ± SEM): 0.95 ± 0.2
Col I synthesis (protein level) (hNGAL; Table S2, hNGAL-treated human cardiac fibroblasts, Control 1.0, NGAL 2.03, mean ± SEM): 1.09 ± 0.2
Galectin-3 synthesis (protein level) (hNGAL; Table S2, hNGAL-treated human cardiac fibroblasts, Control 1.0, NGAL 2.1, mean ± SEM): 1.3 ± 0.1
% inhibition versus hNGAL on Col I protein level (hNGAL; [1]): 46.4%
% inhibition versus hNGAL on Col III protein level (hNGAL; [1]): 37.1%
% inhibition versus hNGAL on Fibronectin protein level (hNGAL; [1]): 47.2%
% inhibition versus hNGAL on Galectin 3 protein level (hNGAL; [1]): 38.1%

From PMC7844219, “Antifibrotic effect of novel neutrophil gelatinase-associated lipocalin inhibitors in cardiac and renal disease models” (Scientific Reports, 2021)
